Reference: patent US20220387317A1, “METHODS AND COMPOSITIONS RELATING TO SELECTIVE INTRACELLULAR DELIVERY OF CD38 INHIBITORS” (Ohio State Innovation Foundation, priority 2019, published 2022)
“Also recorded” adds a separate entry of the source.

Experiments:
[1] = system: Sprague Dawley rats; assay: Rat liver hilar clamp model of IRI (segmental 70% ischemia); type: in vivo
Source text: In Vitro: Primary liver cells subjected to H2O2-induced oxidative stress injury. In Vivo: Liver IRI induced in Sprague Dawley rats using a segmental (70% ischemia) hilar clamp model. Markers of liver injury including plasma ALT and AST, tissue MDA, ATP, and GSH, and histology assessed. • b) Results Hypoxic HSCs had increased CD38 expression (FIG. 11) and CD38 activity measured by fluorometric assay (FIG. 12). CD38 expression, activity, and hepatocellular injury increased with duration of ischemia in a rat hilar clamp model of IRI: Sprague-Dawley rats underwent a hilar clamp procedure to induce IRI for 30, 60, 90, 120 min of ischemia followed by 6 h reperfusion. Tissue CD38 expression was measured by Western blot (FIG. 15A), serum ALT by colorimetric assay at 0, 30, 180, 360 min post reperfusion (FIG. 15B), and CD38 activity at all ischemia time points (FIG. 15C). CD38 inhibition increases cell viability, decreases intracellular ROS formation and ET-1 production in HSCs exposed to hypoxia/oxidant stress: Primary rat HSCs were exposed to 3 h hypoxia (0% 02) and 2 h oxidant stress (H2O2). […] Rat model of marginal donor organ recapitulates the inflammatory environment of a discarded “high risk” human donor organ: Control rats have little steatosis by H&E (FIG. 18A) and mild CD38 expression by IHC (FIG. 18B). Rats fed a methionine choline deficient (MCD) diet have severe steatosis by H&E (FIG. 18C) and high CD38 expression co-localizing with GFAP positive HSCs by IHC (FIG. 18D).

[2] = target: T1, CD38 (Rattus norvegicus, UniProt Q64244); assay: CD38 activity during hepatic IRI; type: in vivo
T1 construct: Liver IRI induced in Sprague Dawley rats using a segmental (70% ischemia) hilar clamp model; from tissue; host or cells: rat liver (Sprague Dawley, hilar clamp ischemia/reperfusion)
T1 sequence (Q64244 1-303): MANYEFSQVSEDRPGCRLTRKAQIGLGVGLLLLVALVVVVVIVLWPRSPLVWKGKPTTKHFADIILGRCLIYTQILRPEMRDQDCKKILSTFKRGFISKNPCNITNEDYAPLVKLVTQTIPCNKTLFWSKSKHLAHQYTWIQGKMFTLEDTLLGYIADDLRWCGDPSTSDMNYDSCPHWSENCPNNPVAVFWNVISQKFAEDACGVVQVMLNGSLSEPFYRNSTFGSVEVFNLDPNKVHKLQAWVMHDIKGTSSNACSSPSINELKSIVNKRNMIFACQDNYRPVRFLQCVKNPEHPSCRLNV
Source text: In Vitro: Primary liver cells subjected to H2O2-induced oxidative stress injury. In Vivo: Liver IRI induced in Sprague Dawley rats using a segmental (70% ischemia) hilar clamp model. […] Additionally, CD38 activity correlated with increased ischemic time (FIGS. 15A and 15C). However, Apigenin treatment attenuated liver IRI (FIG. 16). […] Additionally, Apigenin treatment improves tissue MAD, ATP and GSH. Lastly, Apigenin treatment preserves tissue architecture.

CD38 activity during IRI ([2]; FIG. 14): rescued
CD38 activity during IRI ([2]; FIG. 14, listed as Inhibitor): decreases
Compound: O=c1cc(-c2ccc(O)cc2)oc2cc(O)cc(O)c12 [Apigenin]
tissue architecture ([1]; histology, liver IRI): preserves
liver IRI (injury) ([1]; intrahepatic delivery, 1 h of ischemia and 6 h of reperfusion, FIG. 16): attenuated; also recorded: protection from injury; also recorded: decreased injury
tissue ATP ([1]; liver tissue, liver IRI): improves
tissue GSH ([1]; liver tissue, liver IRI): improves
tissue MDA (malondialdehyde) ([1]; liver tissue, liver IRI): improves
ALT ([1]; plasma, liver IRI): improves
AST ([1]; plasma, liver IRI): improves
